{"source": "a melting point compilation (Tetko et al.; mined from patent text by program, amines drawn as free bases though some values may be those of a salt)"}
{"units": {"melting point": "°C"}}
{"smiles": "O=C(O)c1cccc(-c2nc(-c3cc(Cl)sc3Cl)cs2)c1", "melting point": "241 to 242"}
{"smiles": "Nc1ncnc2c1c(-c1ccccc1Oc1ccccc1)cn2C1CCCC1", "melting point": "109 to 110"}
{"smiles": "O=S(Cc1cccs1)c1ncc(Br)cn1", "note": "(stereo not drawn)", "melting point": "108 to 109"}
{"smiles": "CCCOCCOc1ccc(Oc2ccc3c(c2)C=C(C(=O)Nc2ccc(CN(C)C4CCOCC4)cc2)CCS3(=O)=O)cc1OCC", "melting point": "159 to 160"}
{"smiles": "CCOC(=O)CCc1c[nH]c2ccc([N+](=O)[O-])cc12", "melting point": "118 to 121"}
{"smiles": "CCCC(=O)C1=C(O)CC(c2ccc3occc3c2)CC1=O", "note": "(stereo not drawn)", "melting point": 71}
{"smiles": "O=C(NC1CCCCC1)c1ccc(-c2ccc3nnn(Cc4ccc5ncccc5c4)c3n2)cc1F", "melting point": "172 to 175"}
{"smiles": "O=S(=O)(c1ccc(Cl)cc1)C(c1ccc(CN2CCOCC2)cn1)c1cc(F)ccc1F", "note": "(stereo not drawn)", "melting point": "120 to 121"}
{"smiles": "N#Cc1ccc(OCC(O)CN2CC3CC(C2)CN(C(=O)OCCCl)C3)cc1", "note": "(stereo not drawn)", "melting point": "104 to 105"}
{"smiles": "CN(C)c1ccc(C=C2SC(N3CCCC3)=NC2=O)cc1-c1cc(F)c(O)c(C23CC4CC(CC(C4)C2)C3)c1", "melting point": "294 to 298"}
{"smiles": "O=C(Nc1ccccn1)c1c(OC(F)F)ccc2oc3ccc(C(F)(F)F)cc3c12", "melting point": "169 to 170"}
{"smiles": "CCCCn1cnc2c(OC)nc(Nc3ccc(OCC)nc3)nc21", "melting point": "174 to 176"}
{"smiles": "C#CC[C@@H](NCCCN1C(=O)c2ccccc2C1=O)c1nc2cc(Cl)ccc2c(=O)n1Nc1ccccc1", "melting point": "78 to 80"}
{"smiles": "Cc1nc(N2CCN(Cc3ccc(C(F)(F)F)o3)C2=O)sc1C(=O)NCc1ccccc1", "melting point": "143 to 145"}
{"smiles": "Cc1scnc1-c1cc(C(C)(C)C)c(O)c(C(C)(C)C)c1", "melting point": "128 to 130"}
{"smiles": "CC(=O)NC[C@H]1CN(c2ccc(N3CCC(O)(CN=[N+]=[N-])CC3)c(F)c2)C(=O)O1", "melting point": "146 to 149"}
{"smiles": "Oc1ccc2c(c1)C13CCN(CC4CC4)C(C2)C1OCOC3", "note": "(stereo not drawn)", "melting point": "193 to 196"}
{"smiles": "CNc1cc(Cl)cc(N)c1[N+](=O)[O-]", "melting point": 129}
{"smiles": "COc1ccc(-c2cc(N(C)c3c(C)cc(C)cc3C)nc(C)n2)cc1OC", "melting point": "124 to 125"}
{"smiles": "OC(C1=NCCN1)(c1ccccc1)c1ccccn1", "note": "(stereo not drawn)", "melting point": "152 to 154"}
{"smiles": "Cc1ccc(S(=O)(=O)n2c(I)cc3c(Br)ccnc32)cc1", "melting point": "140 to 143"}
{"smiles": "CN(C)C(=N[N+](=O)[O-])N(Cc1cnc(Cl)s1)C(=S)Oc1ccccc1", "melting point": "161 to 162"}
{"smiles": "CCCCCCCCCCCCCCC(=O)NC1CC(C)(C)N(CC#N)C(C)(C)C1", "melting point": 101}
{"smiles": "OC1CSc2nc(SCc3ccccc3)nn21", "note": "(stereo not drawn)", "melting point": "136 to 138"}
{"smiles": "Cc1c2n(c3ccccc13)C(=O)C(Cc1cn(C)cn1)CC2", "note": "(stereo not drawn)", "melting point": "99 to 100"}
{"smiles": "Cc1oc(-c2ccc(C(F)(F)F)cc2)nc1COc1cccc(C#CC(C)n2oc(=O)[nH]c2=O)c1", "note": "(stereo not drawn)", "melting point": "84 to 86"}
{"smiles": "COc1ccc(Sc2nc(C)n(Cc3cc4c(cc3Cl)OCO4)c2C(=O)O)cc1", "melting point": "200 to 210"}
{"smiles": "CCC(=O)OCC1OC(n2c(Cl)c(C=O)c3cc(Cl)c(Cl)cc32)C(O)C1O", "note": "(stereo not drawn)", "melting point": "139 to 140"}
{"smiles": "Cc1ccc(C(=O)c2ccccc2Cl)n1N", "melting point": "84 to 85"}
{"smiles": "C=C(C(=O)c1ccc(C(=O)NCCN2CCOCC2)cc1)c1cc(OC)c(OC)c(-c2cccs2)c1", "melting point": "84 to 87"}
{"smiles": "CC(C)Sc1c(C(N)=O)sc2ccc(OCc3ccccc3)cc12", "melting point": "150 to 152"}
{"smiles": "COc1ccc(C(CC(C)(C)C(=O)O)c2ccc(Cl)cc2)cc1", "note": "(stereo not drawn)", "melting point": "139 to 142"}
{"smiles": "O=Cc1c(Cl)n(C2OC(CF)C(O)C2O)c2cc(Cl)c(Cl)cc12", "note": "(stereo not drawn)", "melting point": "207 to 208"}
{"smiles": "CC(C)CC(C(=O)OCc1ccc([N+](=O)[O-])cc1)N(C(=O)OC(C)(C)C)C1CC1", "note": "(stereo not drawn)", "melting point": "139 to 143"}
{"smiles": "O=S1(=O)N=CN(C2CC2)c2ccc(Br)cc21", "melting point": "242 to 244"}
{"smiles": "CCCCCCOCC1CN(c2cc3c(cc2F)c(=O)c(C(=O)O)cn3CC)CCN1C", "note": "(stereo not drawn)", "melting point": "172 to 174"}
{"smiles": "CCN(CC)C1CCCCN(CC(=O)N2c3ccccc3C(=O)Nc3cccnc32)C1", "note": "(stereo not drawn)", "melting point": "222 to 224"}
{"smiles": "COCS(=O)(=O)[C@H](C)[C@](O)(Cn1cncn1)c1ccc(F)cc1F", "melting point": "102 to 103"}
{"smiles": "Cn1ncc(C(=O)N2C[C@H]3C[C@@H]2CO3)c1C(=O)Nc1ccn2nc(-c3cccnc3)nc2c1", "melting point": "272 to 273"}
{"smiles": "CC(=O)C(C)Oc1ccc2[nH]c(C)c(C(=O)OCc3ccccc3)c2c1", "note": "(stereo not drawn)", "melting point": "94 to 98"}
{"smiles": "CN(C)c1ccc(CC(=O)Nc2cc(CC3SC(=O)NC3=O)ccc2O)cc1", "note": "(stereo not drawn)", "melting point": "216 to 218"}
{"smiles": "O=C(CC1=C(n2nc(-c3c(-c4ccccc4)nn4ccccc34)ccc2=O)CCCC1)N1CCSCC1", "melting point": "180 to 182"}
{"smiles": "O=P(O)(O)C(O)(CC(O)c1ccccc1)P(=O)(O)O", "note": "(stereo not drawn)", "melting point": 132}
{"smiles": "COC(=O)c1ccc(Cc2cccc3ccc(N)cc23)c(OC)c1", "melting point": "138 to 140"}
{"smiles": "CC(C)(C)c1ccc(N)cn1", "melting point": "61.5 to 62.7"}
{"smiles": "Cc1cc2nc(Cl)cc(N)c2[nH]1", "melting point": 270}
{"smiles": "Cc1cc(C#C[Si](C)(C)C)ccc1-n1c(C(F)(F)F)nn(C)c1=S", "melting point": "90 to 93"}
{"smiles": "N#Cc1ccc(Cn2c(=O)[nH]c3cc(Cl)cc(Cl)c3c2=O)cc1", "melting point": "317 to 320"}
{"smiles": "O=C(CCC(=O)N[C@@H]1CCc2ccccc21)N[C@@H]1CCc2ccccc21", "melting point": "266 to 269"}
{"smiles": "CC1CCCCC1OC(=O)c1cc(NC(=O)c2ccccc2)ccc1Cl", "note": "(stereo not drawn)", "melting point": "121 to 122"}
{"smiles": "CCC(CC)c1ccc(Cl)c2nc(Oc3c(C)cc(Cl)cc3Cl)n(C)c12", "melting point": "155 to 157"}
{"smiles": "O=S(=O)(NCCN1CCOCC1)c1ccc(-c2n[nH]c3c2Cc2ccccc2-3)cc1", "melting point": "218 to 220"}
{"smiles": "Cc1c(C#N)sc2nc(CCCc3ccccc3)nc(N3CCN(C)CC3)c12", "melting point": "101 to 103"}
{"smiles": "Cc1ccc(NC(=O)NN(C(=O)c2ccccc2)C(C)(C)C)cc1", "melting point": "208 to 210"}
{"smiles": "CN(c1ccc(Cl)cc1)C1CCN(c2ccc(OC[C@@]3(C)Cn4cc([N+](=O)[O-])nc4O3)cc2)CC1", "melting point": "174 to 175"}
{"smiles": "COCCCNc1cc(C(Sc2ccc(Cl)cc2)c2cc(F)ccc2F)c(Cl)cn1", "note": "(stereo not drawn)", "melting point": "146 to 148"}
{"smiles": "CCCCCn1c(=O)c2cc(C(=O)OCC)cn2c2ccccc21", "melting point": "151 to 152"}
{"smiles": "C=CC(=O)NC(=O)NCCS(=O)(=O)C=C", "melting point": "177 to 179"}
{"smiles": "CC12CCC(=O)C=C1CCC1C3CC(OCCO)C(O)(C(=O)CO)C3(C)CC(O)C12F", "note": "(stereo not drawn)", "melting point": "162 to 165"}
{"smiles": "O=C1CC(c2cccc(-n3ccnc3)c2)=Nc2ccc(-c3ccc(F)cc3O)cc2N1", "melting point": 220}
{"smiles": "COCCOc1cc2ncc(C#N)c(NC3CCCC3)c2cc1OC", "melting point": "87 to 90"}
{"smiles": "O=C(c1cc(N2CCC(N3CCCC3)CC2)ccn1)N(O)Cc1ccccc1", "melting point": "135 to 140"}
{"smiles": "COc1cc(C(=O)N2CCN(C(=O)C3=Cc4ccc(OC)c(OC)c4CCC3)CC2)cc(OC)c1OC", "melting point": "133 to 134"}
{"smiles": "NC(=O)c1cc2c(cc1OCC1CCCCC1)OCCC[C@@H]2N", "melting point": "145 to 146"}
{"smiles": "C[C@H](O)CNc1nc(Oc2ccc(F)cc2F)cc2[nH]nc(-c3ccccc3Cl)c12", "melting point": "171 to 172"}
{"smiles": "O=S(=O)(c1ccc(Cl)cc1)C(c1cc(F)ccc1F)c1cc(Cl)ncc1Cl", "note": "(stereo not drawn)", "melting point": "147 to 148"}
{"smiles": "CCOC(=O)C(=O)Cc1c(OCc2ccccc2)cc(C)cc1[N+](=O)[O-]", "melting point": "80 to 82"}
{"smiles": "COc1cccc(Nc2n[nH]c(N)c2C#N)c1", "melting point": "177 to 180"}
{"smiles": "O=C1C(O)=C(C2CCCCC2)C(=O)c2ccccc21", "melting point": "128 to 130"}
{"smiles": "CCNC(=O)Nc1ccc2c(c1Cl)C(c1ccccc1F)=NCC(=O)N2C", "melting point": "155 to 160"}
{"smiles": "Cn1ncc(CC(=O)O)c1OCCCc1cn(-c2ccc(C(F)(F)F)cn2)nc1C1CCCCC1", "melting point": "137 to 138"}
{"smiles": "Clc1nc2c(c(N3CCCC3)n1)SCCC2", "melting point": 76}
{"smiles": "COC(=O)C1(Cc2c[nH]c3ccccc23)CC(N=[N+]=[N-])C(=O)O1", "note": "(stereo not drawn)", "melting point": "110 to 112"}
{"smiles": "CSc1nc(=O)n(CCO)cc1F", "melting point": "161 to 162"}
{"smiles": "FC(F)(F)C(F)(F)C1(CNC2=NCCO2)CCCCC1", "melting point": "115 to 118"}
{"smiles": "Cc1nc(CC(=O)O)no1", "melting point": "101 to 103"}
{"smiles": "O=C(Oc1ccc(-c2cc3ccc(OC(=O)c4ccccc4)cc3s2)cc1)c1ccccc1", "melting point": "216 to 218"}
{"smiles": "Cc1cccc(O)c1S(N)(=O)=O", "melting point": 126}
{"smiles": "Cn1c(-c2ccccc2)cc(O)c(C(=O)c2ccccc2)c1=O", "melting point": "149 to 151"}
{"smiles": "N#Cc1ccccc1N1CCN(CC(=O)Nc2ccccc2)CC1", "melting point": "137 to 138"}
{"smiles": "CCON=C(C)c1cccc(S(N)(=O)=O)c1", "melting point": "157 to 158"}
{"smiles": "CC(C)(Oc1ccc(OCCOc2cc(C(C)(C)C)c(O)c(C(C)(C)C)c2)cc1)C(=O)O", "melting point": 124}
{"smiles": "Cc1cccc(CO)c1Cl", "melting point": "63 to 64"}
{"smiles": "CCCCn1c(=O)c(C#N)c(N2CCN(C(=O)c3cccs3)CC2)c2cccnc21", "melting point": 143}
{"smiles": "Cc1nc(N2CCN(Cc3cccc4cccnc34)C2=O)sc1C(=O)NCc1cccnc1", "melting point": "225 to 228"}
{"smiles": "COc1ccc(C(CCCCC(=O)NO)C2=C(C)C(=O)c3ccccc3C2=O)cc1", "note": "(stereo not drawn)", "melting point": "129 to 130"}
{"smiles": "CCOC(=O)c1c(Cn2cnnc2)nc2sc(C)c(C)c2c1-c1ccc2c(c1)OCO2", "melting point": "96 to 98"}
{"smiles": "COC(=O)c1ccc(NC(C)=O)c(CC(=O)O)c1", "melting point": 194}
{"smiles": "N#CCC(=O)NC1CCCCC1NC(=O)CC#N", "note": "(stereo not drawn)", "melting point": "202 to 204"}
{"smiles": "CC(C)(C)OC(=O)NC(Cc1ccc(CO)cc1)c1cccnc1", "note": "(stereo not drawn)", "melting point": 130}
{"smiles": "O=C(O)c1ccc2c(c1)Sc1cc3c(cc1C=C2)CCC3", "melting point": "103 to 104"}
{"smiles": "CCCCCCOC(=O)NC(=N)c1ccc(NCc2nc3cc(C(=O)N(CCC(=O)OCC)c4ccccn4)ccc3n2C)cc1", "melting point": "126 to 128"}
{"smiles": "c1ccc(Nc2nc(NC3CCC3)c3[nH]cnc3n2)cc1", "melting point": "312 to 314"}
{"smiles": "CCCC(=O)c1cnc2c(OC)cccc2c1Nc1ccc(OC(=O)CC)cc1C", "melting point": "163 to 165"}
{"smiles": "CC(C)(C)OC(=O)N1CCC[C@H]1C(=O)O[C@H]1CO[C@H]2[C@H]1OC[C@H]2O[N+](=O)[O-]", "melting point": "109 to 111"}
{"smiles": "CCOC(=O)C=Cc1cc(OCc2ccccc2)ccc1-c1ccc(-c2cccnc2)c(C=O)c1", "melting point": "126 to 128"}
{"smiles": "CN1CC(CNN)CC2c3cccc4[nH]cc(c34)CC21", "note": "(stereo not drawn)", "melting point": "171 to 172"}
{"smiles": "COc1cc(C)nc(NC(=O)NS(=O)(=O)c2ccccc2OC(F)(F)F)n1", "melting point": 162}
